IC50 data for 91 molecules are collected here from the Kinase Knowledgebase extract (Sharma et al. 2016).

Values after ≈ are worked out from the molar mass of the structure shown. Where only a bound is given, the exact number is not on record here.

Sequence of EGFR (P00533 whole entry, looked up): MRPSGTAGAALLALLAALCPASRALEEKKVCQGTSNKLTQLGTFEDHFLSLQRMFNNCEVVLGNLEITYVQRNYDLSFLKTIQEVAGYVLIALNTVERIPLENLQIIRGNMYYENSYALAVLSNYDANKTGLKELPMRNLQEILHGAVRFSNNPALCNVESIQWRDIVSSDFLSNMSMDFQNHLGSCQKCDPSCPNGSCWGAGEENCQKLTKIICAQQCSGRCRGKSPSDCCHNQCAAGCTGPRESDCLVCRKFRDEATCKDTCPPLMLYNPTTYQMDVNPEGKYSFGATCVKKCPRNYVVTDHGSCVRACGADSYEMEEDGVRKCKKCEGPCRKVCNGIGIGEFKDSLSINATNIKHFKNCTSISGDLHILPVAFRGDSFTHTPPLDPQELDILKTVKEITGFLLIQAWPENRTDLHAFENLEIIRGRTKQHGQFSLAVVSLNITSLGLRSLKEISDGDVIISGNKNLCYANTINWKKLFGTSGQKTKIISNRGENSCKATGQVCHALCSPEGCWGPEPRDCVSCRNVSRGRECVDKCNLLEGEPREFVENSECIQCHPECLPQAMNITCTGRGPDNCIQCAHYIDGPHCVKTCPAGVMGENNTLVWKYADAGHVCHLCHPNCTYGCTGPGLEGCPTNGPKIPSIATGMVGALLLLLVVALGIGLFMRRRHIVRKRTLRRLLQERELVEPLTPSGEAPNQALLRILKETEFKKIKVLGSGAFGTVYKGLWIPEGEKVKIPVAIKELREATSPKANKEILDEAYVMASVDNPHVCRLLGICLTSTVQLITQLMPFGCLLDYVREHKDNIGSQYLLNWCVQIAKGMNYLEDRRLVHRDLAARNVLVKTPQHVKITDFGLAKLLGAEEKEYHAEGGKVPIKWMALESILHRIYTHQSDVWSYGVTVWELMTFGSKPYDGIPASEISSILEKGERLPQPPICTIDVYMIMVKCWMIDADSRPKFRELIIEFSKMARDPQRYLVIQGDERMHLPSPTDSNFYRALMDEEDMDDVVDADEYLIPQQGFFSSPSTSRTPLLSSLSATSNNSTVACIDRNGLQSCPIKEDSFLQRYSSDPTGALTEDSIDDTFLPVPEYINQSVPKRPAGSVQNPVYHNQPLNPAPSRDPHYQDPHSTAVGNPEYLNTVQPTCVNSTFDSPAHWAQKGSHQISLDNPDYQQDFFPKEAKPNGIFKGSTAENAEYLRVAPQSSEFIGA

This assay addresses EGFR (UniProt P00533).
As a reminder, the IC50 is the concentration that inhibits the measured activity by half. A high value points to a need for much substance. For the molecule `COc1cc(Nc2ncnc(-n3c(N)nc4cc(C(F)(F)F)ccc43)n2)cc(OC)c1OC.COc1cc(Nc2ncnc(-n3c(N)nc4ccc(C(F)(F)F)cc43)n2)cc(OC)c1OC`, the 50% inhibitory concentration (IC50) was over 4.5 µg/mL.
In turn, `COc1cc(Nc2ncnc(Nc3ccc(N)cc3)n2)cc(OC)c1OC` displayed an IC50 of 0.4 to 2.4 µg/mL (≈ 1.09 to 6.51 µM).
Turning to `COc1cc(Nc2ncnc(-n3c(NCc4ccccc4F)nc4ccccc43)n2)cc(OC)c1OC`, the IC50 is over 4.5 µg/mL.
`COc1cc(Nc2ncnc(-n3c(NCc4ccc(F)cc4Cl)nc4ccccc43)n2)cc(OC)c1OC` showed an IC50 of 3.5 to 4.5 µg/mL (≈ 6.53 to 8.4 µM).
`c1ccc(Cn2ncc3cc(Nc4ncnc(NCC5CCCCC5)n4)ccc32)cc1` came in with a half-inhibitory concentration (IC50) of over 4.5 µg/mL.
Consider `COc1cc(Nc2ncnc(-n3c(C)nc4ccccc43)n2)cc(OC)c1OC`, for which the IC50 lay in the range of 2.4 to 3.5 µg/mL (≈ 6.12 to 8.92 µM).
As to `CCN(CC)CCCNc1ccc(-c2ncnc(Nc3cc(OC)c(OC)c(OC)c3)n2)cn1`, the concentration for half-maximal inhibition (IC50) was over 4.5 µg/mL.
On to `COc1ccc(N(C)c2ncnc(Nc3ccc(OC)c(OC)c3)n2)cc1`, for which the IC50 is under 0.4 µg/mL.
Turning to `O=c1[nH]c2ccccc2n1-c1ncnc(Nc2ccc(OC(F)(F)F)cc2)n1`, the half-maximal inhibitory concentration (IC50) is over 4.5 µg/mL.
The molecule `COC(=O)c1ccc(-c2cc(Nc3ncnc(NCc4cccnc4)n3)[nH]n2)cc1` gave an IC50 of over 4.5 µg/mL.
The molecule `O=S(=O)(O)c1cccc(Nc2ncnc(Nc3cc(-c4ccco4)[nH]n3)n2)c1` returned an IC50 of under 0.4 µg/mL.
The molecule `O=C(O)Cc1cccc(Nc2ncnc(-n3c(NCc4ccccc4)nc4ccccc43)n2)c1` yielded a concentration for half-maximal inhibition (IC50) of under 0.4 µg/mL.
The molecule `Nc1nc2ccccc2n1-c1ncnc(Nc2ccc(Cl)c(Cl)c2)n1` had an IC50 of 0.4 to 2.4 µg/mL (≈ 1.07 to 6.45 µM).
In turn, `Cc1ccc(Nc2ncnc(-n3cccc3)n2)cc1Cl` showed an IC50 of over 4.5 µg/mL.
With `COc1cc(Nc2ncnc(N3CCCc4ccccc43)n2)cc(OC)c1OC`, the IC50 is under 0.4 µg/mL.
As to `COc1cc(Nc2ncnc(-n3c(N)nc4ccccc43)n2)ccc1OCCN1CCOCC1`, the 50% inhibitory concentration (IC50) was over 4.5 µg/mL.
Molecule `COc1cc(Nc2ncnc(Nc3ccc(F)cc3)n2)cc(OC)c1OC` displayed a concentration for half-maximal inhibition (IC50) of 0.4 to 2.4 µg/mL (≈ 1.08 to 6.46 µM).
Molecule `COc1cc(Nc2ncnc(-n3c(NCc4ccccn4)nc4ccccc43)n2)cc(OC)c1OCCn1ccnn1` came in with an IC50 of over 4.5 µg/mL.
With `COc1cc(Nc2ncnc(Cl)n2)cc(OC)c1OC` the figure was over 4.5 µg/mL; with `COc1cc(Nc2ncnc(-n3c(N[C@H](C)c4ccccc4)nc4ccccc43)n2)cc(OC)c1OC`, over 4.5 µg/mL.
The value for `COc1cc(Nc2ncnc(-c3c(O)[nH]c4ccc(Cl)cc34)n2)cc(OC)c1OC` was 2.4 to 3.5 µg/mL (≈ 5.61 to 8.18 µM); that for `COc1cc(Nc2ncnc(-n3c(NC(=O)c4ccccc4)nc4ccccc43)n2)cc(OC)c1OC` was over 4.5 µg/mL; that for `Cc1cccc(Nc2ncnc(N(C)c3cccc(Br)c3)n2)c1` was under 0.4 µg/mL.
For the molecule `COc1ccc(Nc2nc3ccccc3n2-c2ncnc(Nc3cc(OC)c(OC)c(OC)c3)n2)c(C)c1`, the IC50 was over 4.5 µg/mL.
In turn, `COc1cc(Nc2ncnc(Nc3n[nH]c(Nc4ccc(Cl)cc4)n3)n2)cc(OC)c1OC` came in with an IC50 of 2.4 to 3.5 µg/mL (≈ 5.11 to 7.45 µM).
Molecule `COc1cc(C)c(Nc2ncnc(Nc3cc(-c4ccc(Cl)cc4)n[nH]3)n2)cc1OC` registered a half-maximal inhibitory concentration (IC50) of 3.5 to 4.5 µg/mL (≈ 7.99 to 10.3 µM).
For `COc1cc(C)c(Nc2ncnc(Nc3cc(-c4ccccc4)n[nH]3)n2)cc1OC`, the IC50 fell in the range of 0.4 to 2.4 µg/mL (≈ 0.991 to 5.95 µM).
For the molecule `O=c1[nH]c2ccccc2n1-c1ncnc(Nc2ccc3ccccc3c2)n1`, the IC50 is over 4.5 µg/mL.
The value for `COc1ccc(Nc2ncnc(Nc3ccc4[nH]ccc4c3)n2)cc1OC` was under 0.4 µg/mL; that for `COc1cc(Nc2ncnc(-c3cccnc3NCc3ccccc3OC(F)(F)F)n2)cc(OC)c1OC` was over 4.5 µg/mL; that for `COc1cc(Nc2ncnc(Nc3cccc(CN4CCN(C)CC4)c3)n2)cc(OC)c1OC` was over 4.5 µg/mL.
In turn, `NS(=O)(=O)c1ccc(CNc2ncnc(-n3c(=O)[nH]c4ccccc43)n2)cc1` showed a concentration for half-maximal inhibition (IC50) of over 4.5 µg/mL.
The molecule `Cc1cccc(Nc2ncnc(Nc3ccc4[nH]ccc4c3)n2)c1` had an IC50 of under 0.4 µg/mL.
The value for `COc1cc(Nc2ncnc(Nc3ccc4[nH]ncc4c3)n2)cc(OC)c1OC` was under 0.4 µg/mL.
With `COc1cc(Nc2ncnc(-n3c(NCc4ccc(F)cc4)nc4ccccc43)n2)cc(OC)c1OC`, the 50% inhibitory concentration (IC50) is over 4.5 µg/mL.
With `COc1ccc(Nc2ncnc(Nc3ccc4c(c3)CCC4)n2)cc1OC` the figure was 0.4 to 2.4 µg/mL (≈ 1.1 to 6.6 µM).
`COc1cc(Nc2ncnc(-n3c(Nc4ccc(F)cc4)nc4ccccc43)n2)cc(OC)c1OC` returned a half-maximal inhibitory concentration (IC50) of over 4.5 µg/mL.
In turn, `COc1cc(Nc2ncnc(-n3c(NCCc4ccccn4)nc4ccccc43)n2)cc(OC)c1OC` came in with a concentration for half-maximal inhibition (IC50) of over 4.5 µg/mL.
With `COC(=O)c1sccc1Nc1ncnc(N2CCCc3cc(C)ccc32)n1`, the IC50 was over 4.5 µg/mL.
`COc1cc(Nc2ncnc(Nc3nc4ccccc4n3C)n2)cc(OC)c1OC`: the IC50 was over 4.5 µg/mL.
As for `COc1cccc(Nc2ncnc(N(C)c3cccc(Cl)c3)n2)c1`, the 50% inhibitory concentration (IC50) is under 0.4 µg/mL.
With `CN(c1cccc(Cl)c1)c1ncnc(Nc2ccc3nn(C)cc3c2)n1`, the half-maximal inhibitory concentration (IC50) is under 0.4 µg/mL.
`O=c1[nH]c2ccccc2n1-c1ncnc(Nc2cccc(S(=O)(=O)CCO)c2)n1` registered an IC50 of over 4.5 µg/mL.
With `COc1cc(Nc2ncnc(-c3cccnc3Nc3ccc(Oc4ccccc4)cc3)n2)cc(OC)c1OC`, the IC50 was over 4.5 µg/mL.
Consider `COc1cc(Nc2ncnc(-n3c(N(C)C)nc4ccccc43)n2)cc(OC)c1OC`, for which the IC50 was over 4.5 µg/mL.
Molecule `COc1cc(Nc2ncnc(-n3c(=O)[nH]c4ccccc43)n2)cc(OC)c1OC` displayed a 50% inhibitory concentration (IC50) of 3.5 to 4.5 µg/mL (≈ 8.87 to 11.4 µM).
Molecule `CC(C)(C)OC(=O)NCc1cccc(Nc2ncnc(Nc3cc(C(C)(C)C)n[nH]3)n2)c1` gave a half-maximal inhibitory concentration (IC50) of over 4.5 µg/mL.
With `COc1cc(Nc2ncnc(-n3c(Nc4ccc(C#N)cc4)nc4ccccc43)n2)cc(OC)c1OC` the figure was over 4.5 µg/mL; with `COc1cc(Nc2ncnc(Nc3ccc(N4CCOCC4)cc3)n2)cc(OC)c1OC`, over 4.5 µg/mL.
Molecule `COc1cc(OC)nc(Nc2ncnc(-n3c(=O)[nH]c4ccccc43)n2)n1` returned a half-inhibitory concentration (IC50) of over 4.5 µg/mL.
Regarding `COc1cc(Nc2ncnc(Nc3ccc(NC(=O)OC(C)(C)C)cc3)n2)cc(OC)c1OC`, the IC50 is over 4.5 µg/mL.
Molecule `NC(=O)c1ccccc1Nc1ncnc(-n2c(N)nc3ccccc32)n1` had an IC50 of over 4.5 µg/mL.
On to `c1cc(Cn2ccnn2)cc(Nc2ncnc(-n3c(Nc4ccc5[nH]ccc5c4)nc4ccccc43)n2)c1`, for which the half-maximal inhibitory concentration (IC50) lay within 2.4 to 3.5 µg/mL (≈ 4.8 to 7.01 µM).
As for `Clc1cccc(Nc2ncnc(-n3cccc3)n2)c1`, the half-inhibitory concentration (IC50) was over 4.5 µg/mL.
Take `COc1cc(Nc2ncnc(-c3cccnc3NC3CCc4ccccc43)n2)cc(OC)c1OC` (stereo unspecified): the IC50 is 2.4 to 3.5 µg/mL (≈ 5.1 to 7.44 µM).
For `NC(=O)c1cccc(Nc2ncnc(-c3cccs3)n2)c1`, the IC50 is over 4.5 µg/mL.
`COc1cc(Nc2ncnc(-c3cccnc3NCCC(C)(C)C)n2)cc(OC)c1OC` returned a half-maximal inhibitory concentration (IC50) of over 4.5 µg/mL.
`Cc1ccc2c(c1)CCCN2c1ncnc(Nc2ccc3ncsc3c2)n1` returned an IC50 of 0.4 to 2.4 µg/mL (≈ 1.07 to 6.41 µM).
In turn, `COc1cc(Nc2ncnc(-n3c(Nc4cccc(C(=O)O)c4)nc4ccccc43)n2)cc(OC)c1OC` registered an IC50 of 3.5 to 4.5 µg/mL (≈ 6.82 to 8.76 µM).
`COc1cc(CNc2ncnc(N(C)c3cccc(Cl)c3)n2)cc(OC)c1OC`: the IC50 is 2.4 to 3.5 µg/mL (≈ 5.77 to 8.42 µM).
Molecule `COc1cc(Nc2ncnc(-n3c(Nc4cccc(C)c4)nc4ccccc43)n2)cc(OC)c1OC` showed a 50% inhibitory concentration (IC50) of over 4.5 µg/mL.
As for `CCOC(=O)Cc1cn(-c2ncnc(Nc3cc(OC)c(OC)c(OC)c3)n2)c2ccccc12`, the IC50 is over 4.5 µg/mL.
As for `Fc1ccc(Nc2ncnc(Cl)n2)cc1Cl`, the IC50 is over 4.5 µg/mL.
In the case of `COc1cc(Nc2ncnc(N[C@@H](CO)c3ccccc3)n2)cc(OC)c1OC`, the concentration for half-maximal inhibition (IC50) is over 4.5 µg/mL.
With `NS(=O)(=O)c1ccc(Nc2ncnc(-n3c(=O)[nH]c4ccccc43)n2)cc1`, the IC50 is over 4.5 µg/mL.
On to `CN(c1cccc(Cl)c1)c1ncnc(Nc2cc(-c3ccco3)[nH]n2)n1`, for which the IC50 is under 0.4 µg/mL.
In turn, `COc1ccc(Nc2ncnc(-n3c(=O)[nH]c4ccccc43)n2)cn1` showed a 50% inhibitory concentration (IC50) of over 4.5 µg/mL.
The value for `COc1cc(Nc2ncnc(-c3cccnc3NCC(C)c3ccccc3)n2)cc(OC)c1OC` (stereo unspecified) was over 4.5 µg/mL.
For `COc1cc(Nc2ncnc(Nc3cccc(Br)c3)n2)cc(OC)c1OC`, the IC50 was under 0.4 µg/mL.
In turn, `COc1cc(Nc2ncnc(Nc3ccc(O)cc3C)n2)cc(OC)c1OC` yielded an IC50 of 2.4 to 3.5 µg/mL (≈ 6.26 to 9.13 µM).
The value for `OCCCNc1cc(-c2ncnc(Nc3cccc(OC(F)(F)C(F)F)c3)n2)ccn1` was over 4.5 µg/mL; that for `Clc1ccc(-c2csc(Nc3ncnc(-n4cccc4)n3)n2)cc1` was over 4.5 µg/mL; that for `COC(=O)c1cccc(Nc2ncnc(Nc3cc(-c4ccco4)n[nH]3)n2)c1` was over 4.5 µg/mL.
As for `CC(C)(C)c1cc(Nc2ncnc(Nc3cccc(CO)c3)n2)[nH]n1`, the 50% inhibitory concentration (IC50) was 0.4 to 2.4 µg/mL (≈ 1.18 to 7.07 µM).
Turning to `CN(c1cccc(Cl)c1)c1ncnc(Nc2ccccc2)n1`, the IC50 is under 0.4 µg/mL.
In turn, `O=c1[nH]c2ccccc2n1-c1ncnc(Nc2ccccc2)n1` returned an IC50 of over 4.5 µg/mL.
With `COc1cc(Nc2ncnc(-n3ccc4ccccc43)n2)cc(OC)c1OC` the figure was over 4.5 µg/mL; with `FC(F)(F)c1ccc(Cl)c(Nc2ncnc(-n3cccc3)n2)c1`, over 4.5 µg/mL.
Regarding `COc1cc(Nc2ncnc(-n3c(N)nc4cc([N+](=O)[O-])ccc43)n2)cc(OC)c1OC.COc1cc(Nc2ncnc(-n3c(N)nc4ccc([N+](=O)[O-])cc43)n2)cc(OC)c1OC`, the IC50 was over 4.5 µg/mL.
For the molecule `CN(c1cccc(Cl)c1)c1ncnc(Cl)n1`, the IC50 is over 4.5 µg/mL.
`COc1cc(Nc2ncnc(Nc3cc(C(F)(F)F)ccc3F)n2)cc(OC)c1OC` yielded a concentration for half-maximal inhibition (IC50) of under 0.4 µg/mL.
As for `CC(=O)N1CCc2cc(Nc3ncnc(N4CCCc5cc(C)ccc54)n3)ccc21`, the IC50 is under 0.4 µg/mL.
In the case of `c1ccc(Cn2ncc3cc(Nc4ncnc(NCc5ccco5)n4)ccc32)cc1`, the IC50 lay in the range of 0.4 to 2.4 µg/mL (≈ 1.01 to 6.04 µM).
`CC(=O)NS(=O)(=O)c1ccc(Nc2ncnc(N(C)c3cccc(Cl)c3)n2)cc1` came in with an IC50 of under 0.4 µg/mL.
As to `COC(=O)c1cccc(Nc2ncnc(-n3c(NCc4ccc(OC)cc4)nc4ccccc43)n2)c1`, the half-inhibitory concentration (IC50) was over 4.5 µg/mL.
Molecule `CCC(Nc1nc2ccccc2n1-c1ncnc(Nc2cc(OC)c(OC)c(OC)c2)n1)c1ccccc1` (stereo unspecified) had an IC50 of 0.4 to 2.4 µg/mL (≈ 0.782 to 4.69 µM).
In turn, `COc1cc(Nc2ncnc(-n3c(NCc4cccs4)nc4ccccc43)n2)cc(OC)c1OC` yielded a concentration for half-maximal inhibition (IC50) of 0.4 to 2.4 µg/mL (≈ 0.817 to 4.9 µM).
For `COc1cc(Nc2ncnc(-n3c(NCc4ccccn4)nc4ccccc43)n2)cc(OCCN2CCOCC2)c1OC`, the IC50 is over 4.5 µg/mL.
Molecule `COc1cc(Nc2ncnc(-n3cccc3)n2)cc(OC)c1OC` had a half-maximal inhibitory concentration (IC50) of over 4.5 µg/mL.
As for `NC(=O)Cc1cccc(Nc2ncnc(-n3c(NCc4ccccc4)nc4ccccc43)n2)c1`, the half-inhibitory concentration (IC50) is under 0.4 µg/mL.
Turning to `CC(C)Nc1ncccc1-c1ncnc(Nc2ccc(N3CCOCC3)cc2)n1`, the concentration for half-maximal inhibition (IC50) lay in the range of 0.4 to 2.4 µg/mL (≈ 1.02 to 6.13 µM).
